Test results as given in ChEMBL document CHEMBL1159246, “Further Structural Studies on the Petroformynes” (J Nat Prod, 1995).

Tested on: Artemia salina
Test: Toxicity in Artemia salina after 24 hrs
Assay type: organism-based
Conditions: in vivo

First: C#CCCCCCCCCCCCCCCCC/C=C\CCCCC#CC(=O)C#CCCCC/C=C\CCCCCC/C=C/C(O)C#C (centres undefined)
Second: C#CCCCCCCCCCCCCCCCC/C=C\CC/C=C/C#CC(=O)C#CCCCC/C=C\CCCCCC/C=C/C(O)C#C (centres undefined)
The LD50 of the first is higher: 6.3 ppm for the first, 1 ppm for the second.

Going from C#CC(=O)/C=C/CC/C=C\CCCC/C=C\CCC#CC(O)C#C/C=C/CC/C=C\CCCCCCCCCCCCC/C=C/C(=O)C#C (centres undefined) to C#CC(=O)/C=C/CC/C=C\CCCC/C=C\CCC#CC(O)C#C/C=C/CC/C=C\CCCCCCCCCCCCC/C=C/C(O)C#C (centres undefined) [PETROFORMYNE 8], the LD50 falls from 5 ppm to 0.77 ppm.

First: C#CCCCCCCCCCCCCCCCC/C=C\CC/C=C\C#CC(O)C#CCCCC/C=C\CCCCCCCCC(O)C#C (centres undefined)
Second: C#CCCCCCCCCCCCCCCCC/C=C\CC/C=C\C#CC(O)C#CCCCC/C=C\CCCCCC/C=C/C(O)C#C (centres undefined) [ISOPETROFORMYNE 3]
The LD50 of the first is higher: 6.8 ppm for the first, 0.26 ppm for the second.

Compared with C#C/C=C\CCCCCCCCCCCCCC/C=C\CCCCC#CC(O)C#CCCCC/C=C\CCCCCC/C=C/C(=O)C#C (centres undefined), C#CC(=O)/C=C/CCCCCC/C=C\CCCCC#CC(O)C#C/C=C/CC/C=C\CCCCCCCCCCCCC/C=C/C(=O)C#C (centres undefined) is lower in LD50: 0.5 ppm for the first, 0.18 ppm for the second.

C#C/C=C\CCCCCCCCCCCCCC/C=C\CC/C=C\C#CC(O)C#CCCCC/C=C\CCCCCC/C=C/C(O)C#C (centres undefined) [ISOPETROFORMYNE 4] was tested, and the LD50 was 0.6 ppm.
